Data on 14 compounds can be found in ChEMBL document CHEMBL1240448, “Synthesis of N-methyl-bisindolylmaleimide amino acid methyl ester conjugates and cytotoxicity study” (Eur J Med Chem, 2010).

A value given as a limit tells only on which side of the number the result lay.

As a reminder, the IC50 is the midpoint of a concentration-inhibition curve. A low value points to higher potency.

For assay [1], the system named is MCF7. As to the kind of experiment: Cytotoxicity against human MCF7 cells after 96 hrs by MTT assay. The following applies: MCF7, 96 h. Background: Tetrazolium assays rely on reduction of a dye to a coloured formazan, in cell work by metabolically active cells.
Assay [2] has as its system HCT-8. The assay is described as follows: Cytotoxicity against human HCT8 cells after 96 hrs by MTT assay. The following applies: HCT-8, 96 h.
Assay [3] relates to A549. The assay is described as follows: Cytotoxicity against human A549 cells after 96 hrs by MTT assay. Conditions: A549, 96 h.
In assay [4] the test system is A2780. As to the kind of experiment: Cytotoxicity against human A2780 cells after 96 hrs by MTT assay. Conditions: A2780, 96 h.
For assay [5], the system named is BGC-823. The assay is described as follows: Cytotoxicity against human BGC823 cells after 96 hrs by MTT assay. Conditions: BGC-823, 96 h.
Assay [6] has as its system Bel-7402. The assay is described as follows: Cytotoxicity against human Bel7402 cells after 96 hrs by MTT assay. The following applies: Bel-7402, 96 h.

As to `COC(=O)CNC(=O)Cn1cc(C2=C(c3c[nH]c4ccccc34)C(=O)N(C)C2=O)c2ccccc21`, the IC50 in assay [1] turned out to be 36 µM; in assay [2], 22.9 µM; in assay [3] it was 78.3 µM; in assay [4] it was 33.9 µM; in assay [5] it was 88.4 µM; in assay [6], 28.4 µM.

As for `COC(=O)[C@@H](CO)NC(=O)Cn1cc(C2=C(c3c[nH]c4ccccc34)C(=O)N(C)C2=O)c2ccccc21`, the IC50 is 24.5 µM in assay [1]; 22.9 µM in assay [2]; 37.9 µM in assay [3]; 23.2 µM in assay [4]; 28.9 µM in assay [5]; 67.2 µM in assay [6].

Take `COC(=O)CCNC(=O)Cn1cc(C2=C(c3c[nH]c4ccccc34)C(=O)N(C)C2=O)c2ccccc21`: the IC50 in assay [1] stood at 47.8 µM; in assay [2] it was 50.9 µM; in assay [3], 37.6 µM; in assay [4], 44.5 µM; in assay [5] it was 44.9 µM; in assay [6], 28.4 µM.

With `CC[C@H](C)[C@@H](NC(=O)Cn1cc(C2=C(c3c[nH]c4ccccc34)C(=O)N(C)C2=O)c2ccccc21)C(=O)OC`, the IC50 in assay [1], in assay [2], in assay [3], in assay [4], in assay [5] and in assay [6] was above 100 µM each time.

`COC(=O)[C@H](NC(=O)Cn1cc(C2=C(c3c[nH]c4ccccc34)C(=O)N(C)C2=O)c2ccccc21)C(C)C`: the concentration for half-maximal inhibition (IC50) in assay [1] is 16 µM; in assay [2], 25.8 µM; in assay [3] it was 30.6 µM; in assay [4], 23.8 µM; in assay [5], 48.2 µM; in assay [6], 4.01 µM.

Turning to `COC(=O)C(Cc1c[nH]c2ccccc12)NC(=O)Cn1cc(C2=C(c3c[nH]c4ccccc34)C(=O)N(C)C2=O)c2ccccc21` (single isomer, unassigned), the 50% inhibitory concentration (IC50) in assay [1] came to 4.83 µM; in assay [2], 9.19 µM; in assay [3], 45.2 µM; in assay [4] it was 5.39 µM; in assay [5], 3.73 µM; in assay [6], 4.11 µM.

On to `COC(=O)C(Cc1ccccc1)NC(=O)Cn1cc(C2=C(c3c[nH]c4ccccc34)C(=O)N(C)C2=O)c2ccccc21` (single isomer, unassigned), for which the IC50 in assay [1] amounted to 95.3 µM; in assay [2] it was 72.4 µM; in assay [3], 88.1 µM; in assay [4], 77.9 µM; in assay [5] it was 98 µM; in assay [6] it was 96.7 µM.

`COC(=O)C(Cc1ccc(O)c(O)c1)NC(=O)Cn1cc(C2=C(c3c[nH]c4ccccc34)C(=O)N(C)C2=O)c2ccccc21` (single isomer, unassigned): the half-maximal inhibitory concentration (IC50) in assay [1], in assay [2], in assay [3], in assay [4], in assay [5] and in assay [6] was above 100 µM throughout.

Regarding `COC(=O)C(Cc1ccc(O)cc1)NC(=O)Cn1cc(C2=C(c3c[nH]c4ccccc34)C(=O)N(C)C2=O)c2ccccc21` (single isomer, unassigned), the IC50 was 51.7 µM in assay [1]; 93.2 µM in assay [2]; above 100 µM in assay [3]; above 100 µM in assay [4]; above 100 µM in assay [5]; 28.1 µM in assay [6].

As for `COC(=O)C(C)NC(=O)Cn1cc(C2=C(c3c[nH]c4ccccc34)C(=O)N(C)C2=O)c2ccccc21` (single isomer, unassigned), the IC50 in assay [1] came out at 15.3 µM; in assay [2] it was 21.4 µM; in assay [3], 30.5 µM; in assay [4], 15.8 µM; in assay [5], 60.4 µM; in assay [6], 9.34 µM.

Consider `COC(=O)C(CC(C)C)NC(=O)Cn1cc(C2=C(c3c[nH]c4ccccc34)C(=O)N(C)C2=O)c2ccccc21` (single isomer, unassigned), for which the IC50 is 37.4 µM in assay [1]; 37.8 µM in assay [2]; above 100 µM in assay [3]; 38.5 µM in assay [4]; 45.5 µM in assay [5]; 42.4 µM in assay [6].

For `COC(=O)CC(NC(=O)Cn1cc(C2=C(c3c[nH]c4ccccc34)C(=O)N(C)C2=O)c2ccccc21)C(=O)OC` (single isomer, unassigned), the IC50 in assay [1] amounted to 25.8 µM; in assay [2] it was 23.4 µM; in assay [3], 74.2 µM; in assay [4] it was 15.4 µM; in assay [5], 24.6 µM; in assay [6] it was 9.36 µM.

On to `COC(=O)CCC(NC(=O)Cn1cc(C2=C(c3c[nH]c4ccccc34)C(=O)N(C)C2=O)c2ccccc21)C(=O)OC` (single isomer, unassigned), for which the IC50 in assay [1] was 23.4 µM; in assay [2], 29.2 µM; in assay [3] it was 73.7 µM; in assay [4], 32.3 µM; in assay [5] it was 25 µM; in assay [6] it was 47.4 µM.

As for `COC(=O)[C@H](NC(=O)Cn1cc(C2=C(c3c[nH]c4ccccc34)C(=O)N(C)C2=O)c2ccccc21)[C@@H](C)O` (single isomer, unassigned), the IC50 in assay [1] is 22.9 µM; in assay [2], 23.4 µM; in assay [3] it was 25.7 µM; in assay [4], 21.4 µM; in assay [5], 23.3 µM; in assay [6], above 100 µM.
